Results on two compounds are retold here after EP0998931A1, “REMEDIES FOR DRY EYE” (priority 1997, dated 1998).

Read-outs that look alike come from different tables or passages of the source.

In this assay the test system is TG-I m RNA. The assay is described as follows: Expression amounts of TG-I mRNA by RT-PCR in cultured corneal epithelial cells (G3PDH internal standard). Particulars: for inhibition at 1 µM: read-out: inhibition (of TG-I m RNA expression). The class given is cell-based, human. The protocol: Glyceraldehyde-3-phosphoric acid dehydrogenase (G3PDH) was used as an internal standard in consideration of scatter of template total RNA amounts.
Cultured SV40 immortalized human corneal epithelial cells (1 × 10^6 cells) were cultured in a culture medium (DMEM/F12) containing a test compound under a condition of 37°C and 5% CO2 for 72 hours. After culturing, total RNA was extracted according to the AGPC method. Then, RT-PCR was carried out using a primer which is specific for TG-I m RNA or G3PDH m RNA using a Takara RNA-PCR kit (AMV). PCR products were electrophoresed on 1% agarose gel, and bands were detected with a transilluminator. Cells cultured in a culture medium containing no test compound in the same manner were used as a control.
The expression amounts of TG-I m RNA were calculated according to the following equation 1 so that an expression amount in the control was 100. Expression amount = (B/A) × 100 [formula] • A: A band area of a TG-I amplified fragment on the basis of a band area of a G3PDH amplified fragment in the control • B: A band area of a TG-I amplified fragment on the basis of a band area of a G3PDH amplified fragment in the presence of the test compound

For the compound `C=C1/C(=C\C=C2/CCC[C@]3(C)[C@@H]([C@H](C)CC[C@@H](O)C(C)C)CC[C@@H]23)C[C@@H](O)C[C@@H]1O` [1α , 24 (R)-Dihydroxyvitamin D3], the “inhibition of TG-I m RNA expression, dependence on concentration” value (10 nM, 100 nM and 1000 nM) is given as “concentration-dependent inhibition was observed”. Moreover, the mrna remaining at 0.01 µM amounted to 66% (Corneal epithelial cell, 10 nM test compound, 72 hours culture, SV40 immortalized human corneal epithelial cells, control = 100, read-out: Expression amount) and 66% (Homo sapiens, Corneal epithelial cell, 72 h, concentration of 10 nM, relative to control, read-out: expression amounts of TG-I m RNA in the corneal epithelial cells). Further, the mrna remaining at 0.1 µM (Corneal epithelial cell, 100 nM test compound, 72 hours culture, SV40 immortalized human corneal epithelial cells, control = 100, read-out: Expression amount) came out at 39% and the mrna remaining at 0.1 µM (Homo sapiens, Corneal epithelial cell, 72 h, concentration of 100 nM, relative to control, read-out: expression amounts of TG-I m RNA in the corneal epithelial cells) came to 39%. In addition, the mrna remaining at 1 µM was found to be 22% (Corneal epithelial cell, 1000 nM test compound, 72 hours culture, SV40 immortalized human corneal epithelial cells, control = 100, read-out: Expression amount) and 22% (Homo sapiens, Corneal epithelial cell, 72 h, concentration of 1000 nM, relative to control, read-out: expression amounts of TG-I m RNA in the corneal epithelial cells). The compound further yielded an inhibition at 0.01 µM (Homo sapiens, Corneal epithelial cell, 72 h, concentration of 10 nM) of 34%. Also, for the setting “Homo sapiens, Corneal epithelial cell, 72 h, concentration of 100 nM”, the inhibition at 0.1 µM came to 61%. For the same compound, under “Homo sapiens, Corneal epithelial cell, 72 h, concentration of 1000 nM”, the inhibition at 1 µM came to 78%.
As to `C=C1/C(=C\C=C2/CCC[C@]3(C)[C@@H]([C@H](C)CCCC(C)(C)O)CC[C@@H]23)C[C@@H](O)C[C@@H]1O` [1α , 25-Dihydroxyvitamin D3], the mrna remaining at 1 µM worked out at 48% (Homo sapiens, Corneal epithelial cell, 72 h, read-out: Expression amount) and 48% (Homo sapiens, Corneal epithelial cell, 72 h, read-out: expression amounts of TG-I m RNA in the corneal epithelial cells). Moreover, the inhibition at 1 µM (Homo sapiens, Corneal epithelial cell, 72 h) stood at 52%. In addition, the “inhibitory effect relative to that of 1α , 24 (R)-dihydroxyvitamin D3” value (comparative compound at 1000 nM) was “one tenth or less”.
